Results from PubChem BioAssay AID248 (DTP/NCI, 2004).
“And” between values parts separate entries of the source, which are not always exact repeats. Equal values may be shown once. Inconclusive results and toxic doses are left out. Cut-off read from the data, not from the text of the source: active = T/C of 150% or more; inactive = T/C below 125%.

System: L1210 leukemia ip in BDF1 mice, survival T/C
Experiment: NCI In Vivo Anticancer Drug Screen. Data for tumor model L1210 Leukemia (intraperitoneal) in B6D2F1 (BDF1) mice
Conditions: endpoint: mean survival time, higher = longer survival
Summary of the method: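 Read-out is survival time, reported as the treated-group measurement over the vehicle-control measurement.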

[1] = dose: 50.0 mg/kg/injection, schedule: Q01DX009 (ip), vehicle: saline with Tween-80
[2] = dose: 100.0 mg/kg/injection, schedule: Q01DX009 (ip), vehicle: saline with Tween-80
[3] = dose: 200.0 mg/kg/injection, schedule: Q01DX009 (ip), vehicle: saline with Tween-80
[4] = dose: 100.0 mg/kg/injection, schedule: Q04DX002 (ip), vehicle: Klucel (hydroxypropylcellulose) (HPC)
[5] = dose: 200.0 mg/kg/injection, schedule: Q04DX002 (ip), vehicle: Klucel (hydroxypropylcellulose) (HPC)
[6] = dose: 400.0 mg/kg/injection, schedule: Q04DX002 (ip), vehicle: Klucel (hydroxypropylcellulose) (HPC)
[7] = dose: 100.0 mg/kg/injection, schedule: Q01DX009 (ip), vehicle: Klucel (hydroxypropylcellulose) (HPC)
[8] = dose: 100.0 mg/kg/injection, schedule: Q04DX003 (ip), vehicle: Klucel (hydroxypropylcellulose) (HPC)
[9] = dose: 200.0 mg/kg/injection, schedule: Q04DX003 (ip), vehicle: Klucel (hydroxypropylcellulose) (HPC)
[10] = dose: 400.0 mg/kg/injection, schedule: Q04DX003 (ip), vehicle: Klucel (hydroxypropylcellulose) (HPC)
[11] = dose: 400.0 mg/kg/injection, schedule: Q01DX009 (ip), vehicle: saline with Tween-80
[12] = dose: 100.0 mg/kg/injection, schedule: Q04DX003 (ip), vehicle: saline
[13] = dose: 100.0 mg/kg/injection, schedule: Q04DX003 (ip), vehicle: saline with Tween-80
[14] = dose: 200.0 mg/kg/injection, schedule: Q04DX003 (ip), vehicle: saline with Tween-80
[15] = dose: 400.0 mg/kg/injection, schedule: Q04DX003 (ip), vehicle: saline with Tween-80
[16] = dose: 50.0 mg/kg/injection, schedule: Q01DX009 (ip), vehicle: carboxymethylcellulose (CMC)
[17] = dose: 100.0 mg/kg/injection, schedule: Q01DX009 (ip), vehicle: carboxymethylcellulose (CMC)
[18] = dose: 12.5 mg/kg/injection, schedule: Q01DX009 (ip), vehicle: Klucel (hydroxypropylcellulose) (HPC)
[19] = dose: 25.0 mg/kg/injection, schedule: Q01DX009 (ip), vehicle: Klucel (hydroxypropylcellulose) (HPC)
[20] = dose: 50.0 mg/kg/injection, schedule: Q01DX009 (ip), vehicle: Klucel (hydroxypropylcellulose) (HPC)
[21] = dose: 200.0 mg/kg/injection, schedule: Q04DX003 (ip), vehicle: saline
[22] = dose: 400.0 mg/kg/injection, schedule: Q04DX003 (ip), vehicle: saline
[23] = dose: 100.0 mg/kg/injection, schedule: Q01DX001 (ip), vehicle: Klucel (hydroxypropylcellulose) (HPC)
[24] = dose: 100.0 mg/kg/injection, schedule: Q01DX009 (ip), vehicle: saline
[25] = dose: 200.0 mg/kg/injection, schedule: Q01DX009 (ip), vehicle: saline

Measured: T/C

CCC(CO)C(C)C (configuration not stated)
inactive: [1] 107 % of control | [2] 102 % of control | [3] 93 % of control

Cc1cccc(Cl)c1NC(=S)Nc1ccccc1
inactive: [4] 101 % of control | [5] 94 % of control | [6] 97 % of control

CCC(=O)Nc1cc(Cl)ccc1C
inactive: [7] 98 % of control | [8] 102 % of control | dose: 200.0 mg/kg/injection, schedule: Q01DX009 (ip), vehicle: Klucel (hydroxypropylcellulose) (HPC) 98 % of control | [9] 102 % of control | dose: 400.0 mg/kg/injection, schedule: Q01DX009 (ip), vehicle: Klucel (hydroxypropylcellulose) (HPC) 95 % of control | [10] 102 % of control

C/C(=N/NC(N)=S)c1c(C)[nH]c2ccccc12
inactive: dose: 10.0 mg/kg/injection, schedule: Q01DX001 (ip), vehicle: acetone 96 % of control | dose: 20.0 mg/kg/injection, schedule: Q01DX001 (ip), vehicle: acetone 96 % of control | dose: 40.0 mg/kg/injection, schedule: Q01DX001 (ip), vehicle: acetone 95 % of control

Clc1cccc(-c2nc3ccccc3c3ccccc23)c1
inactive: [2] 90 % of control | [3] 100 % of control | [11] 103 % of control

C/C=C/C=C/C=N/N=C(N)N
inactive: dose: 15.0 mg/kg/injection, schedule: Q01DX Z (ip), vehicle: carboxymethylcellulose (CMC) 97 % of control | dose: 30.0 mg/kg/injection, schedule: Q01DX Z (oral), vehicle: carboxymethylcellulose (CMC) 109 % of control | dose: 60.0 mg/kg/injection, schedule: Q01DX Z (oral), vehicle: carboxymethylcellulose (CMC) 103 % of control | dose: 120.0 mg/kg/injection, schedule: Q01DX Z (oral), vehicle: carboxymethylcellulose (CMC) 103 % of control and 112 % of control | dose: 240.0 mg/kg/injection, schedule: Q01DX Z (oral), vehicle: carboxymethylcellulose (CMC) 102 % of control and 107 % of control

ClCc1ccc(CCl)c(Cl)c1Cl
inactive: dose: 25.0 mg/kg/injection, schedule: Q01DX009 (ip), vehicle: saline with Tween-80 105 % of control | [1] 97 % of control | [2] 93 % of control

CCN(CC)CCNc1ncnc2[nH]ncc12
inactive: dose: 25.0 mg/kg/injection, schedule: Q04DX003 (ip), vehicle: saline 89 % of control | dose: 50.0 mg/kg/injection, schedule: Q04DX003 (ip), vehicle: saline 86 % of control | [12] 103 % of control and 89 % of control

CCN(C(=O)c1cc(OC)c(OC)c(OC)c1)C1CCCCC1
inactive: [13] 101 % of control | [14] 107 % of control | [15] 96 % of control

Cc1cccc(NCC(=O)NN)c1C
inactive: [16] 102 % of control and 104 % of control | dose: 50.0 mg/kg/injection, schedule: Q04DX002 (ip), vehicle: carboxymethylcellulose (CMC) 96 % of control and 101 % of control | dose: 50.0 mg/kg/injection, schedule: Q04DX003 (ip), vehicle: carboxymethylcellulose (CMC) 102 % of control | [17] 104 % of control and 106 % of control | dose: 100.0 mg/kg/injection, schedule: Q04DX002 (ip), vehicle: carboxymethylcellulose (CMC) 101 % of control and 103 % of control | dose: 100.0 mg/kg/injection, schedule: Q04DX003 (ip), vehicle: carboxymethylcellulose (CMC) 102 % of control | dose: 200.0 mg/kg/injection, schedule: Q01DX009 (ip), vehicle: carboxymethylcellulose (CMC) 97 % of control | [5] 92 % of control | dose: 200.0 mg/kg/injection, schedule: Q04DX002 (ip), vehicle: carboxymethylcellulose (CMC) 104 % of control and 107 % of control | dose: 200.0 mg/kg/injection, schedule: Q04DX003 (ip), vehicle: carboxymethylcellulose (CMC) 90 % of control | [6] 113 % of control

CCOC(=O)NCC(CCN1CCCC1)(c1cccc2ccccc12)C(C)C (configuration not stated)
inactive: [18] 104 % of control | dose: 12.5 mg/kg/injection, schedule: Q04DX003 (ip), vehicle: Klucel (hydroxypropylcellulose) (HPC) 87 % of control | [19] 102 % of control | [20] 101 % of control | dose: 50.0 mg/kg/injection, schedule: Q04DX003 (ip), vehicle: Klucel (hydroxypropylcellulose) (HPC) 95 % of control

CN(C)C(=O)C1C2CCC(C2)C1C(=O)N(C)C (configuration not stated)
inactive: [12] 103 % of control | [21] 96 % of control | [22] 100 % of control

COc1cc2c(cc1OC)C1(C(=O)c3ccc(OC)c(OC)c3C1=O)N(C(C)=O)C=C2 (configuration not stated)
inactive: [18] 95 % of control | [19] 103 % of control | [20] 100 % of control

COc1ccc(/C=N\NC(=O)N/N=C/c2ccc(OC)c(OC)c2)cc1OC
inactive: dose: 50.0 mg/kg/injection, schedule: Q01DX001 (ip), vehicle: Klucel (hydroxypropylcellulose) (HPC) 90 % of control | [23] 95 % of control

CCOC(=O)c1cc(C=O)oc1C
inactive: [19] 91 % of control | [20] 97 % of control | [7] 103 % of control | [8] 95 % of control | [9] 93 % of control | [10] 90 % of control

Cc1csc(N)c1C(N)=O
inactive: [1] 97 % of control | dose: 50.0 mg/kg/injection, schedule: Q04DX003 (ip), vehicle: saline with Tween-80 97 % of control | [2] 103 % of control | [24] 112 % of control | [13] 92 % of control | [12] 117 % of control | [3] 102 % of control | [25] 100 % of control | [14] 97 % of control | [21] 116 % of control | [11] 103 % of control | dose: 400.0 mg/kg/injection, schedule: Q01DX009 (ip), vehicle: saline 109 % of control | [15] 102 % of control | [22] 115 % of control

Cc1cnc2c(N)nc(-c3ccccc3)nc2n1
inactive: [23] 94 % of control | dose: 200.0 mg/kg/injection, schedule: Q01DX001 (ip), vehicle: Klucel (hydroxypropylcellulose) (HPC) 103 % of control | dose: 400.0 mg/kg/injection, schedule: Q01DX001 (ip), vehicle: Klucel (hydroxypropylcellulose) (HPC) 100 % of control

O=[N+]([O-])c1ccc(Cl)c(O)c1
inactive: dose: 25.0 mg/kg/injection, schedule: Q01DX009 (ip), vehicle: carboxymethylcellulose (CMC) 108 % of control | [16] 106 % of control | [17] 97 % of control

O=C(/C=C/c1ccncc1)c1cccc2ccccc12
inactive: [13] 89 % of control | [14] 97 % of control

OCCNCc1ccc2ccccc2c1
inactive: dose: 150.0 mg/kg/injection, schedule: Q01DX015 (ip), vehicle: saline 90 % of control

COc1cc(CCl)c(CCl)c(OC)c1OC
inactive: dose: 75.0 mg/kg/injection, schedule: Q01DX001 (ip), vehicle: carboxymethylcellulose (CMC) 96 % of control | dose: 150.0 mg/kg/injection, schedule: Q01DX001 (ip), vehicle: carboxymethylcellulose (CMC) 95 % of control | dose: 300.0 mg/kg/injection, schedule: Q01DX001 (ip), vehicle: carboxymethylcellulose (CMC) 93 % of control

CCOC(=O)C(Cc1ccccc1)NC(=O)N(CCCl)CCCl (configuration not stated)
inactive: dose: 62.5 mg/kg/injection, schedule: Q01DX Z (ip), vehicle: water 97 % of control | dose: 125.0 mg/kg/injection, schedule: Q01DX Z (ip), vehicle: water 95 % of control | dose: 250.0 mg/kg/injection, schedule: Q01DX Z (ip), vehicle: water 106 % of control

c1ccc(P2(c3ccccc3)=NP(c3ccccc3)(c3ccccc3)=NP(c3ccccc3)(c3ccccc3)=N2)cc1
inactive: dose: 50.0 mg/kg/injection, schedule: Q01DX009 (ip), vehicle: saline 89 % of control | [24] 86 % of control | [25] 88 % of control

Cc1nnc(/N=C/c2ccccc2)n1/N=C/c1ccccc1
inactive: dose: 25.0 mg/kg/injection, schedule: Q04DX002 (ip), vehicle: Klucel (hydroxypropylcellulose) (HPC) 90 % of control | dose: 50.0 mg/kg/injection, schedule: Q04DX002 (ip), vehicle: Klucel (hydroxypropylcellulose) (HPC) 90 % of control | [4] 96 % of control
